Assay results as given in the kinase profiling compilation of Christmann-Franck et al. (2016).

How the values were obtained:
Assay in all cases: radiometric filter-binding kinase assay
MAPK3 (human) = MAPK3 (human) (UniProt P27361)
MAP3K7 TAB1 (human) = MAP3K7 TAB1 (human) (UniProt Q15750+O43318)
NTRK1 (human) = NTRK1 (human) (UniProt P04629)
[1] = test system: SGK1 (human), O00141 [S422D]
MAPKAPK3 (human) = MAPKAPK3 (human) (UniProt Q16644)
RPS6KA3 KD1 KD2 (human) = RPS6KA3 KD1 KD2 (human) (UniProt P51812)
STK3 (human) = STK3 (human) (UniProt Q13188)
PLK1 (human) = PLK1 (human) (UniProt P53350)
MAPK8 (human) = MAPK8 (human) (UniProt P45983)
MKNK2 (human) = MKNK2 (human) (UniProt Q9HBH9)
MKNK2 (human), sequence (Q9HBH9 whole entry, looked up): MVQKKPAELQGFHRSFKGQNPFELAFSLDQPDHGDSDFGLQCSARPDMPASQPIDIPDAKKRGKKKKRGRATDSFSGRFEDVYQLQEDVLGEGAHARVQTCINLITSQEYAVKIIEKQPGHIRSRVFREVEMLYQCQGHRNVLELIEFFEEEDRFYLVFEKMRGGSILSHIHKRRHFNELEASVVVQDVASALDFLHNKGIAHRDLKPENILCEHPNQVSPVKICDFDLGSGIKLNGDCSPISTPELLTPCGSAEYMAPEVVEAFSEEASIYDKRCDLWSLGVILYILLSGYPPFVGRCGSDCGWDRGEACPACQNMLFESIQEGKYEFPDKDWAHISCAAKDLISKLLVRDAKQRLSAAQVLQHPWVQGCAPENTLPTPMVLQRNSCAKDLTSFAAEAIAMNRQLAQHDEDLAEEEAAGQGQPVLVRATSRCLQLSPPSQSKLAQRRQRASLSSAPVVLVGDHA

ROCK2 (rat) = conditions: accession and sequence are those of the human protein
BRSK2 (human) = BRSK2 (human) (UniProt Q8IWQ3)
DYRK3 (human) = DYRK3 (human) (UniProt O43781)
PAK4 (human) = PAK4 (human) (UniProt O96013)
PAK4 (human), sequence (O96013 whole entry, looked up): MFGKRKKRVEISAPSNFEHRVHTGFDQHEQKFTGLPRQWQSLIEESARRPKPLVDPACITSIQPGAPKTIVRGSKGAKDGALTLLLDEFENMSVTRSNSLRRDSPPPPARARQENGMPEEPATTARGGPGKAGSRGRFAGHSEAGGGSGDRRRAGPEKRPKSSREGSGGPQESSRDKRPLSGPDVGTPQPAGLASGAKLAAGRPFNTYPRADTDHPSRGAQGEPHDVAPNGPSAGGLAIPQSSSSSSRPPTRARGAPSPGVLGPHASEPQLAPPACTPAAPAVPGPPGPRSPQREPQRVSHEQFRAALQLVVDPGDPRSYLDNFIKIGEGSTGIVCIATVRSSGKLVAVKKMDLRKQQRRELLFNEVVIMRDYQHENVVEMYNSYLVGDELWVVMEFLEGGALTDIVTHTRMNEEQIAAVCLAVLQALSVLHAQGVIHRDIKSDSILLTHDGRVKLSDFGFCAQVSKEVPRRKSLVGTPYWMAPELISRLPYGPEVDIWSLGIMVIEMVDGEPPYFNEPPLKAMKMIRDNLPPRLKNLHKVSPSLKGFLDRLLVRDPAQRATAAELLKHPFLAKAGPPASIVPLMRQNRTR

IKBKB (human) = IKBKB (human) (UniProt O14920)
IKBKB (human), sequence (O14920 whole entry, looked up): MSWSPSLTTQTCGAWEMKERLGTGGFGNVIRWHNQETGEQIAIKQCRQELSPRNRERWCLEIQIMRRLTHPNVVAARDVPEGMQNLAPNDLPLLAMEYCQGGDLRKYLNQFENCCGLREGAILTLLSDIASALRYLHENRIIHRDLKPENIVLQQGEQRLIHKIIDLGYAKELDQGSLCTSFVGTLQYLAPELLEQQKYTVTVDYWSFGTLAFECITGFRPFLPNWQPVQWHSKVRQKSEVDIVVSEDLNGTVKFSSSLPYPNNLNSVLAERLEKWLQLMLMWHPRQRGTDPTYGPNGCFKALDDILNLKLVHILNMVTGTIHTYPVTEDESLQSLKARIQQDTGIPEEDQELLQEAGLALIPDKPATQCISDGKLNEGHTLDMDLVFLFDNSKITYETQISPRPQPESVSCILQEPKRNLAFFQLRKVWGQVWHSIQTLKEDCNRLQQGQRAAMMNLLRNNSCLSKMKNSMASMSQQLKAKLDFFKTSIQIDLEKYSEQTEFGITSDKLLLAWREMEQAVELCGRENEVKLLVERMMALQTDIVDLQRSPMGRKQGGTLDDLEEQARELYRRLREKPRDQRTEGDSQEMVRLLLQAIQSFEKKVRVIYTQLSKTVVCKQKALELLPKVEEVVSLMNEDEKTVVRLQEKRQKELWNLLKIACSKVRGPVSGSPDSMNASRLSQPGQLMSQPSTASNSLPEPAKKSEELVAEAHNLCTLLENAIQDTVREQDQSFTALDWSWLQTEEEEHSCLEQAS

MAPK11 (human) = MAPK11 (human) (UniProt Q15759)
MAPK14 (human) = MAPK14 (human) (UniProt Q16539)
MAPK14 (human), sequence (Q16539 whole entry, looked up): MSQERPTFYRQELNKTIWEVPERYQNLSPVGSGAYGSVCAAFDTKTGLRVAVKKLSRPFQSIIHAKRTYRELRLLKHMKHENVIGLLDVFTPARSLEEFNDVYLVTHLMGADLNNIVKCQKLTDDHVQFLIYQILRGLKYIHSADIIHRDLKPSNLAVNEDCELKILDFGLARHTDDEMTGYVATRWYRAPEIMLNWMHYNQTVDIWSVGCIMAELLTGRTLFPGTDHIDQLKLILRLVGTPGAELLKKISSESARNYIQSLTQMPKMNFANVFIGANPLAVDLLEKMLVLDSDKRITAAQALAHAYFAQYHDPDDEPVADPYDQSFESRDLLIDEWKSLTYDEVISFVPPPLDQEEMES

[2] = test system: RPS6KB1 (human), P23443 [T412E]
RPS6KB1 (human), P23443 [T412E], sequence (P23443 whole entry T412E, looked up): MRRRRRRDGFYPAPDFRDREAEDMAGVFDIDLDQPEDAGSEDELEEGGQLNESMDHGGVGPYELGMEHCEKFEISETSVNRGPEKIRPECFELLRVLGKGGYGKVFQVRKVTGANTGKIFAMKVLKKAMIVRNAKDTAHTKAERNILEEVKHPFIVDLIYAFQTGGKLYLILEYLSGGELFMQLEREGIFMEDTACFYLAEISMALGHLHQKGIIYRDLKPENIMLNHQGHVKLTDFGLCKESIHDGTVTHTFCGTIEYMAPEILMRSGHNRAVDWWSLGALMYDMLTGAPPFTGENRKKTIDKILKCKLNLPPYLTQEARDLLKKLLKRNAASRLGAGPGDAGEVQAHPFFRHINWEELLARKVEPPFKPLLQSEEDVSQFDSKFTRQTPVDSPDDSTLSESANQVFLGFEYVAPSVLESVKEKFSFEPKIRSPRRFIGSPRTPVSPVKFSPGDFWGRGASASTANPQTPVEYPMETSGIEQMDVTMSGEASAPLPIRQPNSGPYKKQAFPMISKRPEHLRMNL

TBK1 (human) = TBK1 (human) (UniProt Q9UHD2)
MAPK12 (human) = MAPK12 (human) (UniProt P53778)
RPS6KA1 KD1 KD2 (human) = RPS6KA1 KD1 KD2 (human) (UniProt Q15418)
[3] = test system: AKT1 (human), P31749 [S473D]
AKT1 (human), P31749 [S473D], sequence (P31749 whole entry S473D, looked up): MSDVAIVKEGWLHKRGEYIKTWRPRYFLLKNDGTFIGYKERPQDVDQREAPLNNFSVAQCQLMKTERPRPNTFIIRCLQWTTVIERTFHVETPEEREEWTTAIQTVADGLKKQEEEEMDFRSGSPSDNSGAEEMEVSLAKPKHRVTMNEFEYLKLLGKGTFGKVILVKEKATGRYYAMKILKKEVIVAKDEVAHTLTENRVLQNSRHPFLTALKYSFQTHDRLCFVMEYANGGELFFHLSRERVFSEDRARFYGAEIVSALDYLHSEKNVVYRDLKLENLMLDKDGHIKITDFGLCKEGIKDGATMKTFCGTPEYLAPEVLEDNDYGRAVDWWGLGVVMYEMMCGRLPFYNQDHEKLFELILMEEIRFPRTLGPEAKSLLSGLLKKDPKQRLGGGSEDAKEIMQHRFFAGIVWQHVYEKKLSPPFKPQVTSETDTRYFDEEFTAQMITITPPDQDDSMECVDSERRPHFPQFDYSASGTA

IKBKE (human) = IKBKE (human) (UniProt Q14164)
MAPKAPK5 (human) = MAPKAPK5 (human) (UniProt Q8IW41)
IRAK4 (human) = IRAK4 (human) (UniProt Q9NWZ3)
IRAK4 (human), sequence (Q9NWZ3 whole entry, looked up): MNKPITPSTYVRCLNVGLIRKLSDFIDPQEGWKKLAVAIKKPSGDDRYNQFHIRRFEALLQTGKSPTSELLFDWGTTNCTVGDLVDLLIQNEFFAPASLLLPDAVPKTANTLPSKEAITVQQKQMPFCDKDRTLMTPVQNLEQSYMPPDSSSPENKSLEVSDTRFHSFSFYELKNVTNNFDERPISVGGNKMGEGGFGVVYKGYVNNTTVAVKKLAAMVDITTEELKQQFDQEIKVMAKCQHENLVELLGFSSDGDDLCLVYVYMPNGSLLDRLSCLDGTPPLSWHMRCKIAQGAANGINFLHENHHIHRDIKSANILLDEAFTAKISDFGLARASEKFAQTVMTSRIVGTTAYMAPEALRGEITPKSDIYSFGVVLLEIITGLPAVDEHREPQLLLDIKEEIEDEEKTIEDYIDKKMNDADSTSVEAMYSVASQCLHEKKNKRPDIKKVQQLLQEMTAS

CSNK2A1 (human) = CSNK2A1 (human) (UniProt P68400)
CLK2 (human) = CLK2 (human) (UniProt P49760); conditions: compound 1.0 µM
DAPK1 (human) = DAPK1 (human) (UniProt P53355); conditions: compound 1.0 µM
MAP2K6 (human) = MAP2K6 (human) (UniProt P52564); conditions: compound 1.0 µM
MAP3K11 (human) = MAP3K11 (human) (UniProt Q16584)
PIM2 (human) = PIM2 (human) (UniProt Q9P1W9)
PIM2 (human), sequence (Q9P1W9 whole entry, looked up): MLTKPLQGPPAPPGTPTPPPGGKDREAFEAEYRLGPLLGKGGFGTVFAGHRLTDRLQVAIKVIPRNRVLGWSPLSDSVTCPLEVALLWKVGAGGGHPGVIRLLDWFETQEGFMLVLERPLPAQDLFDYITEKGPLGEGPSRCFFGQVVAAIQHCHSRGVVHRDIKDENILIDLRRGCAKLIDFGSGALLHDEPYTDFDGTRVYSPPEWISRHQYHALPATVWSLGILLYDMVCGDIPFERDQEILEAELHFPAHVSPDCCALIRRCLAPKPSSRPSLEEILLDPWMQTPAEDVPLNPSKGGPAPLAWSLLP

EPHB3 (human) = EPHB3 (human) (UniProt P54753)
PIM3 (human) = PIM3 (human) (UniProt Q86V86)
PIM1 (human) = PIM1 (human) (UniProt P11309)
PIM1 (human), sequence (P11309 whole entry, looked up): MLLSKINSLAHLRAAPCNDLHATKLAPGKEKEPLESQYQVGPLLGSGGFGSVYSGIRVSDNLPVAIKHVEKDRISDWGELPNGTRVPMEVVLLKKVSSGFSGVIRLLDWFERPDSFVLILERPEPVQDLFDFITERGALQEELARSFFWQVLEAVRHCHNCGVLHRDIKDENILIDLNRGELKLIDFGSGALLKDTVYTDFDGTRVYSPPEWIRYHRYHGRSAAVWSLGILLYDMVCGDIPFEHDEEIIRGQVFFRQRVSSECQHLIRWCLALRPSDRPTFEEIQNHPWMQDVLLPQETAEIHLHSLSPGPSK

DYRK1A (human) = DYRK1A (human) (UniProt Q13627)

MAPK3 (human), sequence (P27361 whole entry, looked up): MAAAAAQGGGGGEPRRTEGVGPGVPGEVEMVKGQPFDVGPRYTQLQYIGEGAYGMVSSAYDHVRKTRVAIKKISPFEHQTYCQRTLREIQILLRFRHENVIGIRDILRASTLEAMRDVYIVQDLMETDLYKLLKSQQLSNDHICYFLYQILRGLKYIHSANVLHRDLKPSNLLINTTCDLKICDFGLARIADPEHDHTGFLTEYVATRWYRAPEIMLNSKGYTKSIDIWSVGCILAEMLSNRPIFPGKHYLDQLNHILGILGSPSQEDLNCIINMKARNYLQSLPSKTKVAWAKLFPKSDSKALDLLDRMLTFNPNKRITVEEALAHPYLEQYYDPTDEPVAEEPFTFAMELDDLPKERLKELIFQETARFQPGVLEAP

Structure (SMILES): O=c1c(O)c(-c2ccc(O)c(O)c2)oc2cc(O)c(O)c(O)c12
- residual activity (MAPK3 (human); compound 1.0 µM): 101%
- residual activity (MAPK3 (human); compound 10.0 µM): 54%
- residual activity (MAP3K7 TAB1 (human); compound 1.0 µM): 94%
- residual activity (MAP3K7 TAB1 (human); compound 10.0 µM): 5%
- residual activity (NTRK1 (human); compound 1.0 µM): 92%
- residual activity (NTRK1 (human); compound 10.0 µM): 29%
- residual activity ([1]; compound 1.0 µM): 87%
- residual activity ([1]; compound 10.0 µM): 24%
- residual activity (MAPKAPK3 (human); compound 1.0 µM): 92%
- residual activity (MAPKAPK3 (human); compound 10.0 µM): 14%
- residual activity (RPS6KA3 KD1 KD2 (human); compound 1.0 µM): 22%
- residual activity (RPS6KA3 KD1 KD2 (human); compound 10.0 µM): 12%
- residual activity (STK3 (human); compound 1.0 µM): 58%
- residual activity (STK3 (human); compound 10.0 µM): 9%
- residual activity (PLK1 (human); compound 1.0 µM): 107%
- residual activity (PLK1 (human); compound 10.0 µM): 23%
- residual activity (MAPK8 (human); compound 1.0 µM): 93%
- residual activity (MAPK8 (human); compound 10.0 µM): 93%
- residual activity (MKNK2 (human); compound 1.0 µM): 63%
- residual activity (MKNK2 (human); compound 10.0 µM): 26%
- residual activity (ROCK2 (rat); compound 1.0 µM): 95%
- residual activity (ROCK2 (rat); compound 10.0 µM): 56%
- residual activity (BRSK2 (human); compound 1.0 µM): 71%
- residual activity (BRSK2 (human); compound 10.0 µM): 13%
- residual activity (DYRK3 (human); compound 1.0 µM): 59%
- residual activity (DYRK3 (human); compound 10.0 µM): 2%
- residual activity (PAK4 (human); compound 1.0 µM): 50%
- residual activity (PAK4 (human); compound 10.0 µM): 38%
- residual activity (IKBKB (human); compound 1.0 µM): 100%
- residual activity (IKBKB (human); compound 10.0 µM): 16%
- residual activity (MAPK11 (human); compound 1.0 µM): 101%
- residual activity (MAPK11 (human); compound 10.0 µM): 90%
- residual activity (MAPK14 (human); compound 1.0 µM): 100%
- residual activity (MAPK14 (human); compound 10.0 µM): 119%
- residual activity ([2]; compound 1.0 µM): 104%
- residual activity ([2]; compound 10.0 µM): 14%
- residual activity (TBK1 (human); compound 1.0 µM): 54%
- residual activity (TBK1 (human); compound 10.0 µM): 64%
- residual activity (MAPK12 (human); compound 1.0 µM): 107%
- residual activity (MAPK12 (human); compound 10.0 µM): 88%
- residual activity (RPS6KA1 KD1 KD2 (human); compound 1.0 µM): 51%
- residual activity (RPS6KA1 KD1 KD2 (human); compound 10.0 µM): 15%
- residual activity ([3]; compound 1.0 µM): 106%
- residual activity ([3]; compound 10.0 µM): 99%
- residual activity (IKBKE (human); compound 1.0 µM): 69%
- residual activity (IKBKE (human); compound 10.0 µM): 21%
- residual activity (MAPKAPK5 (human); compound 1.0 µM): 87%
- residual activity (MAPKAPK5 (human); compound 10.0 µM): 1%
- residual activity (IRAK4 (human); compound 1.0 µM): 80%
- residual activity (IRAK4 (human); compound 10.0 µM): 46%
- residual activity (CSNK2A1 (human); compound 1.0 µM): 46%
- residual activity (CSNK2A1 (human); compound 10.0 µM): 7%
- residual activity (CLK2 (human)): 58%
- residual activity (DAPK1 (human)): 95%
- residual activity (MAP2K6 (human)): 102%
- residual activity (MAP3K11 (human); compound 1.0 µM): 62%
- residual activity (MAP3K11 (human); compound 10.0 µM): 16%
- residual activity (PIM2 (human); compound 1.0 µM): 74%
- residual activity (PIM2 (human); compound 10.0 µM): 11%
- residual activity (EPHB3 (human); compound 1.0 µM): 93%
- residual activity (EPHB3 (human); compound 10.0 µM): 61%
- residual activity (PIM3 (human); compound 1.0 µM): 34%
- residual activity (PIM3 (human); compound 10.0 µM): 0%
- residual activity (PIM1 (human); compound 1.0 µM): 37%
- residual activity (PIM1 (human); compound 10.0 µM): 7%
- residual activity (DYRK1A (human); compound 1.0 µM): 71%
- residual activity (DYRK1A (human); compound 10.0 µM): 3%
